Test results reported in PubChem BioAssay (NCI).
“And” between values parts separate entries of the source, which are not always exact repeats. Identical values can stand only once.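 Dose response: 5 concentrations. Exposure: 48 h. Format: 96-well plates. Endpoint: linear interpolation; highest concentration if not reached. GI50 is the concentration that inhibits growth by half. TGI: concentration producing complete growth inhibition.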

Columns and labels:
Test in all cases: NCI tumour cell line growth inhibition, 48 h
HCT-116 colon = system: HCT-116 colon
HS 578T breast = system: HS 578T breast
MALME-3M melanoma = system: MALME-3M melanoma
NCI-H460 lung = system: NCI-H460 lung
RPMI-8226 leukemia = system: RPMI-8226 leukemia
RXF 393 renal = system: RXF 393 renal
SK-MEL-5 melanoma = system: SK-MEL-5 melanoma
SN12C renal = system: SN12C renal
SNB-19 CNS = system: SNB-19 CNS
SR leukemia = system: SR leukemia

Compound	TGI (HCT-116 colon)	TGI (HS 578T breast)	TGI (MALME-3M melanoma)	TGI (NCI-H460 lung)	TGI (RPMI-8226 leukemia)	TGI (RXF 393 renal)	TGI (SK-MEL-5 melanoma)	TGI (SN12C renal)	TGI (SNB-19 CNS) [µM]	TGI (SR leukemia)	GI50 (HCT-116 colon)	GI50 (HS 578T breast) [µM]	GI50 (MALME-3M melanoma)	GI50 (NCI-H460 lung)	GI50 (RPMI-8226 leukemia)	GI50 (RXF 393 renal)	GI50 (SK-MEL-5 melanoma)	GI50 (SNB-19 CNS) [µM]	GI50 (SR leukemia) [µM]	GI50 (SN12C renal)
COc1ccc2nc3cc(Cl)ccc3c(Nc3ccccc3-c3ccccc3Nc3c4ccc(Cl)cc4nc4ccc(OC)cc34)c2c1	> 100 µM	> 100 µM	68.6 µM	98.9 µM	> 47.7 µM	> 53.5 µM	30.7 µM	> 84.4 µM	> 100	> 66.8 µM										
O=C(O)CCC(O)=C1S(=O)(=O)OCCOS1(=O)=O	> 100 µM	> 100 µM	> 100 µM	> 100 µM	> 100 µM	> 100 µM	> 100 µM	> 100 µM	> 100	> 100 µM										
OCc1c(-c2cccs2)oc(-c2cccs2)c1CO	> 100 µM	> 100 µM	94.6 µM	> 100 µM	> 100 µM	78.5 µM	> 100 µM		> 100	60.5 µM	44.1 µM	44.2	30.1 µM	28.4 µM	41.5 µM	22.7 µM	39 µM	67.5	32.5	
CCN1C(=O)N(CC)C2C1NN=c1s/c(=C3\C(=O)Nc4ccccc43)c(=O)n12 (configuration not stated)	> 61.6 µM	17.7 µM	38.4 µM	> 100 µM	6.06 µM	1.05 µM	> 100 µM	> 100 µM	32.3	> 62 µM	0.485 µM	0.347	0.557 µM	0.397 µM	0.306 µM	0.279 µM	0.426 µM	0.633	0.292	0.6 µM
CCC/C=C/C=C/C(=O)OC1/C(=C/C(=O)OC)CC2CC(C(C)O)OC(=O)CC(O)CC3CC(OC(C)=O)C(C)(C)C(O)(CC4C/C(=C/C(=O)OC)CC(/C=C/C(C)(C)C1(O)O2)O4)O3 (configuration not stated)	> 10.9 µM and 11 µM and > 12.5 µM	10.8 µM and > 12.5 µM	11 µM and > 12.5 µM	10.9 µM and 11 µM and > 12.5 µM	> 10.9 µM and 11 µM and > 12.5 µM	10.9 µM and > 12.5 µM	10.9 µM and 11 µM and > 12.5 µM	> 10.9 µM and 11 µM and > 12.5 µM	> 12.5	11 µM and > 12.5 µM	> 10.9 µM and 5.2 µM and > 12.5 µM	> 12.5	5.71 µM and > 12.5 µM	9.82 µM and 2.81 µM and > 12.5 µM	8.95 µM and > 12.5 µM	10.6 µM and 5.25 µM and > 12.5 µM	7.86 µM and 1.9 µM and > 12.5 µM	> 11	10.8	> 10.9 µM and 7.93 µM and > 12.5 µM
Cc1cc(NC(=O)NCCOc2ccc(N3C(N)=NC(N)=NC3(C)C)cc2Cl)ccc1S(=O)(=O)F	> 100 µM	76.8 µM	41.1 µM	17.6 µM	> 55 µM	> 100 µM	11.4 µM	> 100 µM	> 100	40 µM	0.545 µM	9.84	7.46 µM	0.391 µM	3.46 µM	2.05 µM	1.19 µM	4.31	0.493	1.85 µM
Cc1cccc(CNc2c3ccccc3nc3ccccc23)c1	4.4 µM	6.6 µM	3.17 µM	5.03 µM	4.94 µM	3.07 µM	3.14 µM	10.1 µM	13	8.62 µM	0.927 µM	2.2	1.66 µM	1.99 µM	1.87 µM	1.54 µM	1.7 µM	3.07	1.94	2.4 µM
O=C1c2ccccc2C(=O)c2c1ccc1conc21	3.51 µM	38.6 µM	4.75 µM	12.2 µM	3.85 µM	5.64 µM	4.83 µM	3.61 µM	11.5	18.3 µM										
CN(C)Cc1ccc(NC(=O)c2cncc(C#Cc3cnc(N)c4ncccc34)c2)cc1C(F)(F)F	2.33 µM	3.12 µM	0.956 µM	3.12 µM	3.58 µM	2.88 µM	2.41 µM	3.02 µM	3.5	3.44 µM	1.08 µM	1.4	0.104 µM	1.67 µM	1.24 µM	1.31 µM	1.17 µM	1.89	1.43	1.54 µM
O=C1OC(c2ccc([N+](=O)[O-])cc2)=N/C1=C\c1ccc(Cl)cc1	> 100 µM	> 100 µM	> 100 µM	> 100 µM	> 100 µM	> 100 µM	> 100 µM	> 100 µM	> 100	> 100 µM										
COc1ccc(C2=C(c3ccc(OC)cc3)C(=O)OC2)cc1	11.8 µM	3.93 µM	35.4 µM	17.7 µM	11.4 µM		5.9 µM	42.2 µM	> 100	0.663 µM	1.97 µM	0.604	3.91 µM	0.893 µM	1.71 µM	1.05 µM	0.472 µM	2.34	0.238	7.68 µM
